# Results taken from patent US20200291018A1, “TAM KINASE INHIBITORS” (SYROS PHARMACEUTICALS, INC., priority 2017, published 2020).
# What was measured:
# FLT3 = target: T1, FLT3 (Homo sapiens, UniProt P36888); experiment: TR-FRET kinase activity assay, FLT3; assay type: biochemical; conditions: ATP at Km, 60 minutes
# T1 sequence (P36888 27-993): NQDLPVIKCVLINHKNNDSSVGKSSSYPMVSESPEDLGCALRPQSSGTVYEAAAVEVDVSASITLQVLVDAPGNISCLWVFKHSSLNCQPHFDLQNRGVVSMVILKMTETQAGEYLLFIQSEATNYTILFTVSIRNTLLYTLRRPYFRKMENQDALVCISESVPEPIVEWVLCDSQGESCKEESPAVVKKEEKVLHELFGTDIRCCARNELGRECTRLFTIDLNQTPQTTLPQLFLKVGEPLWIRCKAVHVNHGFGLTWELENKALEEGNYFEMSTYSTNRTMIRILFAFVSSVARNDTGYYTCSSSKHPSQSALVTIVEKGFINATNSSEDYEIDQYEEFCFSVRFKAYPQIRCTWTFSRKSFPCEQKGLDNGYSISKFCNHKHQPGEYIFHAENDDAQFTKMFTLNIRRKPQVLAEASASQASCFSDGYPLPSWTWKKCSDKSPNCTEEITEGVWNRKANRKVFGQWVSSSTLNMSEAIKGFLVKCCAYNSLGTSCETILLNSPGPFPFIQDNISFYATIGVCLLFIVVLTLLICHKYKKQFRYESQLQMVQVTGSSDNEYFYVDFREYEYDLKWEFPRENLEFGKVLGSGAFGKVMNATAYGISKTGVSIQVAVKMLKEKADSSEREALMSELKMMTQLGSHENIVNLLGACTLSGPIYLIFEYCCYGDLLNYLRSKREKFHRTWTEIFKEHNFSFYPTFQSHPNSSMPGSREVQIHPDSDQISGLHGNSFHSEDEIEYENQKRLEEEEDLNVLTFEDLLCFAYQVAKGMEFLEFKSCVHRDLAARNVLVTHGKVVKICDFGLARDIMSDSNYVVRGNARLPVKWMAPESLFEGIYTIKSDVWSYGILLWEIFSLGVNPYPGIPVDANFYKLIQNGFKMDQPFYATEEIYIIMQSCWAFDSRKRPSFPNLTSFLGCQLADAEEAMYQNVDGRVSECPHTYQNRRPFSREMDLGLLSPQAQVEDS
# In short: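 TR-FRET signal from Eu-labeled phospho-site antibody bound to tyrosine-phosphorylated fluorescent peptide; inhibition lowers signal, giving IC50. Reactions: 50 mM HEPES pH 7.5, 10 mM MgCl2, 1 mM EGTA, 0.01% Brij 35, 1 mM DTT, ATP at Km per enzyme, 60 min, RT.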
# TYRO3 = target: T2, TYRO3 (Homo sapiens, UniProt Q06418); experiment: TR-FRET kinase activity assay, TYRO3; assay type: biochemical; conditions: ATP at Km, 60 minutes
# T2 sequence (Q06418 41-890): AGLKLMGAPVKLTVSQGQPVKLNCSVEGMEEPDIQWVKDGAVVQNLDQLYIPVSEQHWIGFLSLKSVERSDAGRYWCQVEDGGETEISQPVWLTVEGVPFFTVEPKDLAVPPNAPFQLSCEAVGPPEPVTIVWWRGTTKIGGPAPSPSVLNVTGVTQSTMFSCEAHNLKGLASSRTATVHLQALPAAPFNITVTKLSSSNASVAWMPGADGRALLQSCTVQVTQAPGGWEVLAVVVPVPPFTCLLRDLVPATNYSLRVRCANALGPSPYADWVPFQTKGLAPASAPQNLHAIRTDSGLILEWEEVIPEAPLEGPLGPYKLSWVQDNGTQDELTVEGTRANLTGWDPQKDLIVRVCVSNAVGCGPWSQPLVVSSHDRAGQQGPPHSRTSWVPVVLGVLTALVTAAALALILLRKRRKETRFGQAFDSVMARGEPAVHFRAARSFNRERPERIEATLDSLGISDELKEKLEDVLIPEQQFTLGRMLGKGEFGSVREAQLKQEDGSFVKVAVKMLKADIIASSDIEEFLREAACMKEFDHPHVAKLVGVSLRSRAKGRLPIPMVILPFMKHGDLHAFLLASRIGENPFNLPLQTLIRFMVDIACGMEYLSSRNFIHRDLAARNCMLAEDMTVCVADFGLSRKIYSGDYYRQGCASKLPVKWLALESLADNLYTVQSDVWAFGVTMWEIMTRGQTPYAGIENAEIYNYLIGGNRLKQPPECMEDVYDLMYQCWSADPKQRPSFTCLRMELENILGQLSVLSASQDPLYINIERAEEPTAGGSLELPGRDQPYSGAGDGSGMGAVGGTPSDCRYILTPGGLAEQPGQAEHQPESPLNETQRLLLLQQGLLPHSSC
# Procedure: IC50 values for compound inhibition of AXL, FLT3, MERTK and TYRO3 activity were determined using a TR-FRET activity assay. A peptide substrate with a fluorescent label is phosphorylated on a tyrosine by each enzyme, where the now phosphorylated product is bound by a Europium-labeled antibody specific to that phosphorylation site. The proximity between the antibody and the substrate gives a signal known as TR-FRET. As the enzyme is inhibited by compound, less phosphorylated peptide product is made, causing a decrease in overall signal.
# Activity assays were performed in a 384-well, small volume, black microplates in an active enzyme volume of 10 uL and final developed volume of 20 uL. Final assay conditions are 50 mM HEPES pH 7.5, 10 mM MgCl2, 1 mM EGTA, 0.01% Brij 35 and 1 mM DTT, all at RT. Enzyme, substrate-labeled peptide and compound are mixed, and then the reaction is initiated with the addition of ATP at Km concentration for each enzyme. The reaction is allowed to run 60 minutes and then quenched with a 12.5 mM EDTA (ethylenediamine tetraacetic acid) solution. The plate is then developed with the addition of Europium-labeled antibody for a final volume of 20 uL and is then incubated for 30 minutes in darkness. Plates are read in a PHERASTAR® plate reader. Data are analyzed in GraphPad PRISM.
Compound,IC50 (FLT3) [nM],IC50 (TYRO3) [nM]
CCCC(C)Nc1ncc2c(=O)n(C3CCNCC3)cc([C@H]3CC[C@H](O)CC3)c2n1 (some centres unmarked) [Compound 112],1000 to 10000,≤ 100
CCCCNc1cc2c(cn1)c(=O)n(C1CCN(C)CC1)cc2[C@H]1CC[C@H](O)CC1 [Compound 116],100 to 1000,≤ 100
CCCC(C)Nc1ncc2c(=O)n(C3CCN(C)CC3)cc([C@H]3CC[C@H](O)CC3)c2n1 (some centres unmarked) [Compound 117],1000 to 10000,≤ 100
CC(C)CC(C)Nc1ncc2c(=O)n(C3CCNCC3)cc([C@H]3CC[C@H](O)CC3)c2n1 (some centres unmarked) [Compound 119],1000 to 10000,≤ 100
CS(=O)(=O)N1CC[C@H](Nc2ncc3c(OC4CCOCC4)ncc([C@H]4CC[C@H](O)CC4)c3n2)C1 [Compound 278],1000 to 10000,100 to 1000
COC[C@H](C)Nc1ncc2c(OC3CCOCC3)ncc(-c3ccc(N4CCN(C)CC4)cc3)c2n1 [Compound 279],1000 to 10000,100 to 1000
COC[C@H](C)Nc1ncc2c(OC3CCOCC3)ncc(-c3ccc(C4CCN(C)CC4)cc3)c2n1 [Compound 280],1000 to 10000,≤ 100
CCOC[C@H](C)Nc1ncc2c(OC3CCOCC3)ncc([C@H]3CC[C@H](O)CC3)c2n1 [Compound 281],1000 to 10000,100 to 1000
CN1CC(Nc2ncc3c(OC4CCOCC4)ncc([C@H]4CC[C@H](O)CC4)c3n2)CC1=O (some centres unmarked) [Compound 282],1000 to 10000,100 to 1000
O=C(O)c1ccc(Nc2ncc3c(OC4CCNCC4)ncc([C@H]4CC[C@H](O)CC4)c3n2)cc1 [Compound 283],100 to 1000,≤ 100
C[C@@H](CCO)Nc1ncc2c(OC3CCOCC3)ncc([C@H]3CC[C@H](O)CC3)c2n1 [Compound 284],1000 to 10000,100 to 1000
COC[C@H](C)Nc1cc2c(cn1)c(OC1CCOCC1)ncc2[C@H]1CC[C@H](O)CC1 [Compound 285],1000 to 10000,100 to 1000
O[C@H]1CC[C@H](c2cnc(OC3CCOCC3)c3cnc(NCCC(F)(F)F)nc32)CC1 [Compound 286],≤ 100,100 to 1000
CC[C@H](C)Nc1ncc2c(O[C@H]3CC[C@](C)(O)CC3)ncc([C@H]3CC[C@H](O)CC3)c2n1 [Compound 287],100 to 1000,100 to 1000
CC(C)Nc1ncc2c(OC3CCOCC3)ncc(-c3cccc(S(=O)(=O)N(C)C)c3)c2n1 [Compound 288],100 to 1000,≤ 100
COC[C@H](C)Nc1ncc2c(OC3CCN(S(C)(=O)=O)CC3)ncc([C@H]3CC[C@H](O)CC3)c2n1 [Compound 289],1000 to 10000,100 to 1000
CC[C@H](C)Nc1ncc2c(=O)n([C@H]3CC[C@H](N)CC3)cc([C@H]3CC[C@H](O)CC3)c2n1 [Compound 290],1000 to 10000,≤ 100
CC1(Nc2ncc3c(OC4CCNCC4)ncc([C@H]4CC[C@H](O)CC4)c3n2)CC1 [Compound 291],1000 to 10000,≤ 100
C[C@@H](CC#N)Nc1ncc2c(OC3CCOCC3)ncc([C@H]3CC[C@H](O)CC3)c2n1 [Compound 292],1000 to 10000,100 to 1000
COC[C@H](C)Nc1ncc2c(OC3CCOCC3)ncc([C@H]3CC[C@](C)(O)CC3)c2n1 [Compound 293],1000 to 10000,≤ 100
COC[C@H](C)Nc1ncc2c(OC3CCOCC3)ncc([C@H]3CC[C@@](C)(O)CC3)c2n1 [Compound 294],1000 to 10000,100 to 1000
COC[C@H](C)Nc1ncc2c(O[C@H]3C[C@H](O)C3)ncc([C@H]3CC[C@H](O)CC3)c2n1 [Compound 295],1000 to 10000,≤ 100

# Next, values leading:
IC50 (FLT3) [nM],IC50 (TYRO3) [nM],Compound
1000 to 10000,≤ 100,COC[C@H](C)Nc1ncc2c(O[C@H]3C[C@@H](O)C3)ncc([C@H]3CC[C@H](O)CC3)c2n1 [Compound 296]
1000 to 10000,100 to 1000,CNC(=O)Nc1ccc(-c2cnc(OC3CCOCC3)c3cnc(N[C@@H](C)COC)nc23)cc1 [Compound 297]
1000 to 10000,≤ 100,CC[C@H](C)Nc1ncc2c(O[C@H]3CC[C@@H](N(C)C)C3)ncc([C@H]3CC[C@H](O)CC3)c2n1 [Compound 298]
≤ 100,≤ 100,O[C@H]1CC[C@H](c2cnc(OC3CCNCC3)c3cnc(Nc4ccc(Cl)c(Cl)c4)nc32)CC1 [Compound 299]
100 to 1000,≤ 100,CCc1cc(Nc2ncc3c(OC4CCNCC4)ncc([C@H]4CC[C@H](O)CC4)c3n2)ccc1Cl [Compound 300]
1000 to 10000,100 to 1000,COC[C@H](C)Nc1ncc2c(OC3CCOCC3)ncc(-c3ccc(O)cc3)c2n1 [Compound 301]
1000 to 10000,100 to 1000,COC[C@H](C)Nc1ncc2c(O[C@H]3CCNCC3(F)F)ncc([C@H]3CC[C@H](O)CC3)c2n1 [Compound 302]
1000 to 10000,≤ 100,COC[C@H](C)Nc1ncc2c(C)ncc([C@H]3CC[C@H](O)CC3)c2n1 [Compound 303]
1000 to 10000,100 to 1000,C[C@@H](CF)Nc1ncc2c(OC3CCOCC3)ncc([C@H]3CC[C@H](O)CC3)c2n1 [Compound 304]
100 to 1000,≤ 100,C[C@@H](CC(F)(F)F)Nc1ncc2c(OC3CCOCC3)ncc([C@H]3CC[C@H](O)CC3)c2n1 [Compound 305]
1000 to 10000,100 to 1000,CC[C@H](C)Nc1ncc2c(OC3CCN(c4ncccn4)CC3)ncc([C@H]3CC[C@H](O)CC3)c2n1 [Compound 306]
1000 to 10000,100 to 1000,"COC[C@H](C)Nc1ncc2c(OC3CCOCC3)ncc(-c3cccc(S(=O)(=O)N(C)C)c3)c2n1 [Compound 307, (S)-3-(2-((1-methoxypropan-2-yl)amino)-5-((tetrahydro-2H-pyran-4-yl)oxy)pyrido[4,3-d]pyrimidin-8-yl)-N,N-dimethylbenzenesulfonamide]"
1000 to 10000,100 to 1000,COC[C@H](C)Nc1ncc2c(O[C@@H]3CCNCC3(F)F)ncc([C@H]3CC[C@H](O)CC3)c2n1 [Compound 308]
1000 to 10000,100 to 1000,COC[C@H](C)Nc1ncc2c(OC3CCOCC3)ncc(-c3ccc(N)cc3)c2n1 [Compound 309]
1000 to 10000,≤ 100,COCCN1C(C)(C)CC(Oc2ncc([C@H]3CC[C@H](O)CC3)c3nc(N[C@@H](C)COC)ncc23)CC1(C)C [Compound 310]
